Legend:
[1] = biological target: T1, AXL (Homo sapiens, UniProt P30530); assay: TR-FRET kinase activity assay, AXL; type: biochemical; details: ATP at Km, 60 minutes
T1 sequence (P30530 26-894): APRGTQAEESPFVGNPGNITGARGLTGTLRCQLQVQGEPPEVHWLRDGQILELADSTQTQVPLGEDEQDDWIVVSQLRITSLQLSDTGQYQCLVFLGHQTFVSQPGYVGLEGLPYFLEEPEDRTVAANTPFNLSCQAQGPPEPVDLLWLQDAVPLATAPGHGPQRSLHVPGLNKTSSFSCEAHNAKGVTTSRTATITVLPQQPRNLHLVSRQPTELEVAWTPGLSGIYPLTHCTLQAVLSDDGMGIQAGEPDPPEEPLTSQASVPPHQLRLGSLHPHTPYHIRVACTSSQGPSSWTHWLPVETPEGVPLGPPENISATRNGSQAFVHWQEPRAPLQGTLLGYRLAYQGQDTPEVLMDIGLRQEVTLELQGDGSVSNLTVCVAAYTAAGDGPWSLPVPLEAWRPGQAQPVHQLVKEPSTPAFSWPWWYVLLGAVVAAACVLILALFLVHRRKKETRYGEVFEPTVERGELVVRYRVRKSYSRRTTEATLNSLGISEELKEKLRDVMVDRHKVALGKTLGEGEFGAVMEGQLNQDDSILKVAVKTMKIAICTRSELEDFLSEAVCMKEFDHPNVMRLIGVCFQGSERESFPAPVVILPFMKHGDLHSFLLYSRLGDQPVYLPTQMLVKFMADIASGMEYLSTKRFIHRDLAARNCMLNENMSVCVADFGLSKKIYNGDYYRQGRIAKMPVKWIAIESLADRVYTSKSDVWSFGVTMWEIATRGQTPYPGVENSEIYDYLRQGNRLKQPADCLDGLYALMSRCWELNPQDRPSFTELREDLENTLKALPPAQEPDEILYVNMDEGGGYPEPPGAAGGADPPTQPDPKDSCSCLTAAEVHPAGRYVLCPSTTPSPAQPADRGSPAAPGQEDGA
Outline: (§1)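 IC50 reflects the drop in TR-FRET between Eu anti-phosphotyrosine antibody and labelled peptide after a 60-minute room-temperature reaction. Buffer was 50 mM HEPES pH 7.5 with 10 mM MgCl2, 1 mM EGTA, 0.01% Brij 35 and 1 mM DTT, with ATP at Km per enzyme and EDTA quench.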

[2] = biological target: T2, MERTK (Homo sapiens, UniProt Q12866); assay: TR-FRET kinase activity assay, MERTK; type: biochemical; details: for IC50: TR-FRET activity assay, ATP at Km, 60 minutes, read-out: Mer IC50; for FLT3/Mer ratio (FLT3 IC50/Mer IC50): ratio of Mer to FLT3: FLT3 IC50/Mer IC50
T2 sequence (Q12866 21-999): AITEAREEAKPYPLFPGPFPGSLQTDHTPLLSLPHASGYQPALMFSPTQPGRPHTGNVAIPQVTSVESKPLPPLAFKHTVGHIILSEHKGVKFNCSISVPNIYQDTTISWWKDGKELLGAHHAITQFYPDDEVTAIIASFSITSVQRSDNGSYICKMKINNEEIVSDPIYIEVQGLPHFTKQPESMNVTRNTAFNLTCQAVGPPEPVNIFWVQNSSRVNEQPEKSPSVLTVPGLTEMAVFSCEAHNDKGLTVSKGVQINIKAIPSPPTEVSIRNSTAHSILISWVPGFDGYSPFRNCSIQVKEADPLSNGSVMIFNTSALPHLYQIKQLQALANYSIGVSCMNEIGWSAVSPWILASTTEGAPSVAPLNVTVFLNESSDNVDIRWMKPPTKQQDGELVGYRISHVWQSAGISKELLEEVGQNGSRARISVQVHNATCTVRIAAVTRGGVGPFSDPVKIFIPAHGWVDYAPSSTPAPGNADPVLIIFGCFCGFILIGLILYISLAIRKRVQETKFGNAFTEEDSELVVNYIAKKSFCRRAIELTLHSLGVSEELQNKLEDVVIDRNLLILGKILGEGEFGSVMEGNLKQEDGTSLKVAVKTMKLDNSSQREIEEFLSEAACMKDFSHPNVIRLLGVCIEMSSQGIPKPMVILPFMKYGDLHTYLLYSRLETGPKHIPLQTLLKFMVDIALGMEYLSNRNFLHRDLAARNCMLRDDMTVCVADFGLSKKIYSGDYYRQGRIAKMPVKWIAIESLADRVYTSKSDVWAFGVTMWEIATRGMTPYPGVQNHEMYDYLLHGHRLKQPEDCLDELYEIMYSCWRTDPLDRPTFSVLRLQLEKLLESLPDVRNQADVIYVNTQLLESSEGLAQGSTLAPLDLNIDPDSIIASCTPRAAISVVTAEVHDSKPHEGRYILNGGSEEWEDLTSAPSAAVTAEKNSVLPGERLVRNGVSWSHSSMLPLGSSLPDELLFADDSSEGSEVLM
Outline: as §1

Row | IC50 [1] [nM] | IC50 [2] [nM] | FLT3/Mer ratio (FLT3 IC50/Mer IC50) [2] | SMILES
1 | ≤ 100 | ≤ 100 | +++ (“+++” represents a ratio of >100) | CNC(=O)c1ccc(-c2cc([C@H]3CC[C@H](O)CC3)n3nc(N[C@@H](C)COC)ncc23)cn1 [Compound 317]
2 | ≤ 100 | ≤ 100 | +++ (“+++” represents a ratio of >100) | COC[C@H](C)Nc1ncc2c(-c3cnn(C(C)(C)C(=O)N4CCC5(COC5)C4)c3)cc([C@H]3CC[C@H](O)CC3)n2n1 [Compound 318]
3 | ≤ 100 | ≤ 100 | +++ (“+++” represents a ratio of >100) | COC[C@H](C)Nc1ncc2c(-c3cnn(C(C)(C)C(=O)C4C[C@H]5COC[C@H]5C4)c3)cc([C@H]3CC[C@H](O)CC3)n2n1 (stereo partly drawn) [Compound 319]
4 | ≤ 100 | ≤ 100 | +++ (“+++” represents a ratio of >100) | COC[C@H](C)Nc1ncc2c(-c3cnn(C(C)(C)C(=O)N4C[C@@H](C)O[C@@H](C)C4)c3)cc([C@H]3CC[C@H](O)CC3)n2n1 [Compound 320]
5 | ≤ 100 | ≤ 100 | +++ (“+++” represents a ratio of >100) | Cc1ccc(-c2cc([C@H]3CC[C@H](O)CC3)n3nc(N[C@@H](C)COC(F)F)ncc23)cn1 [Compound 321]
6 | ≤ 100 | ≤ 100 | +++ (“+++” represents a ratio of >100) | COCC(C)Nc1ncc2c(-c3cnn(Cc4ccc(=O)n(C)c4)c3)cc(C3CCC(O)CC3)n2n1 (stereo not drawn) [Compound 322]
7 | ≤ 100 | ≤ 100 | +++ (“+++” represents a ratio of >100) | COC[C@H](C)Nc1ncc2c(-c3cnn(C4CCS(=O)(=O)CC4)c3)cc([C@H]3CC[C@H](O)CC3)n2n1 [Compound 323]
8 | ≤ 100 | ≤ 100 | +++ (“+++” represents a ratio of >100) | COC[C@H](C)Nc1ncc2c(-c3cnn(C[C@H]4CCC(=O)N4)c3)cc([C@H]3CC[C@H](O)CC3)n2n1 [Compound 324]
9 | ≤ 100 | ≤ 100 | +++ (“+++” represents a ratio of >100) | COC[C@H](C)Nc1ncc2c(-c3cnn(C(C)(C)C(=O)N4CC5(COC5)C4)c3)cc([C@H]3CC[C@H](O)CC3)n2n1 [Compound 326]
10 | ≤ 100 | ≤ 100 | +++ (“+++” represents a ratio of >100) | COC[C@H](C)Nc1ncc2c(-c3cnn(C(C)(C)C(=O)N4C[C@H]5CC[C@@H](C4)O5)c3)cc([C@H]3CC[C@H](O)CC3)n2n1 [Compound 327]
11 | ≤ 100 | ≤ 100 | +++ (“+++” represents a ratio of >100) | COC[C@H](C)Nc1ncc2c(-c3cnn(C(C)(C)C(=O)N4C[C@H](C)O[C@@H](C)C4)c3)cc([C@H]3CC[C@H](O)CC3)n2n1 [Compound 328]
12 | ≤ 100 | ≤ 100 | +++ (“+++” represents a ratio of >100) | COC[C@H](C)Nc1ncc2c(-c3cnn(Cc4cncc(C)n4)c3)cc([C@H]3CC[C@H](O)CC3)n2n1 [Compound 329]
13 | ≤ 100 | ≤ 100 | +++ (“+++” represents a ratio of >100) | COC[C@H](C)Nc1ncc2c(-c3cnn(C4CC(C(=O)OC)C4)c3)cc([C@H]3CC[C@H](O)CC3)n2n1 (stereo partly drawn) [Compound 330]
14 | ≤ 100 | ≤ 100 | +++ (“+++” represents a ratio of >100) | COC[C@H](C)Nc1ncc2c(-c3cnn(C(C)(C)C(=O)N4CCS(=O)(=O)CC4)c3)cc([C@H]3CC[C@H](O)CC3)n2n1 [Compound 331, 1-(1,1-dioxidothiomorpholino)-2-(4-(7-((trans)-4-hydroxycyclohexyl)-2-(((S)-1-methoxypropan-2-yl)amino)pyrrolo[2,1-f][1,2,4]triazin-5-yl)-1H-pyrazol-1-yl)-2-methylpropan-1-one]
15 | ≤ 100 | ≤ 100 | +++ (“+++” represents a ratio of >100) | COC[C@H](C)Nc1ncc2c(-c3cnn(Cc4cn[nH]c4)c3)cc([C@H]3CC[C@H](O)CC3)n2n1 [Compound 332]
16 | ≤ 100 | ≤ 100 | +++ (“+++” represents a ratio of >100) | COC[C@H](C)Nc1ncc2c(-c3cnn(Cc4cc(C)nn4C)c3)cc([C@H]3CC[C@H](O)CC3)n2n1 [Compound 333]
17 | 100 to 1000 | ≤ 100 | +++ (“+++” represents a ratio of >100) | CNC(=O)c1ncc(-c2cc([C@H]3CC[C@H](O)CC3)n3nc(N[C@@H](C)COC)ncc23)cn1 [Compound 334]
18 | 100 to 1000 | ≤ 100 | +++ (“+++” represents a ratio of >100) | CNC(=O)c1cc(-c2cc([C@H]3CC[C@H](O)CC3)n3nc(N[C@@H](C)COC)ncc23)cc(C)n1 [Compound 335]
19 | ≤ 100 | ≤ 100 | +++ (“+++” represents a ratio of >100) | CNS(=O)(=O)c1ccc(-c2cc([C@H]3CC[C@H](O)CC3)n3nc(N[C@@H](C)COC)ncc23)cn1 [Compound 336]
20 | ≤ 100 | ≤ 100 | +++ (“+++” represents a ratio of >100) | COC[C@H](C)Nc1ncc2c(-c3ccnc(NC(C)C)c3)cc([C@H]3CC[C@H](O)CC3)n2n1 [Compound 337]
21 | ≤ 100 | ≤ 100 | +++ (“+++” represents a ratio of >100) | COC[C@H](C)Nc1ncc2c(-c3ccnc(N4CCN(S(C)(=O)=O)CC4)c3)cc([C@H]3CC[C@H](O)CC3)n2n1 [Compound 338]
22 | ≤ 100 | ≤ 100 | +++ (“+++” represents a ratio of >100) | COC[C@H](C)Nc1ncc2c(-c3ccnc(N4CCCC4)c3)cc([C@H]3CC[C@H](O)CC3)n2n1 [Compound 339]
23 | ≤ 100 | ≤ 100 | +++ (“+++” represents a ratio of >100) | COC[C@H](C)Nc1ncc2c(-c3ccnc(N4CCNC(=O)C4)c3)cc([C@H]3CC[C@H](O)CC3)n2n1 [Compound 340]
24 | ≤ 100 | ≤ 100 | +++ (“+++” represents a ratio of >100) | COC[C@H](C)Nc1ncc2c(-c3ccnc(OC4CCCN(C)C4)c3)cc([C@H]3CC[C@H](O)CC3)n2n1 (stereo partly drawn) [Compound 341]

Row | SMILES | IC50 [1] [nM] | IC50 [2] [nM] | FLT3/Mer ratio (FLT3 IC50/Mer IC50) [2]
25 | CNc1c(N[C@H]2CC[C@H](c3cc(-c4ccc(CN5CCOCC5)cc4)c4cnc(N[C@@H](C)COC)nn43)CC2)c(=O)c1=O [Compound 316, 3-(((trans)-4-(2-(((S)-1-methoxypropan-2-yl)amino)-5-(4-(morpholinomethyl)phenyl)pyrrolo[2,1-f][1,2,4]triazin-7-yl)cyclohexyl)amino)-4-(methylamino)cyclobut-3-ene-1,2-dione] | ≤ 100 | ≤ 100 | ++ (“++” represents a ratio of between 10 and 100)

Source: patent US11040981B2, “Pyrrolotriazine compounds and methods of inhibiting TAM kinases” (Syros Pharmaceuticals, Inc., priority 2017, dated 2021)
